Read-outs that look alike come from different tables or passages of the source. One block for each compound: values may come before it.
Experiments:
[1] = system: PC-3 cells; experiment: MTT cell growth inhibition, PC-3
[2] = target: T1, T877A mutated AR (Homo sapiens, UniProt P10275, T878A); experiment: Luciferase assay for AR transactivation, T877A AR, PC-3 cells; format: cell-based; conditions: 0.1 nM DHT; for suppression of DHT-induced transactivation of T877A AR: test compound 0.1-1 μM, PC-3 cells; for Antiandrogenic activity evaluated by luciferase assay in PC-3 cells T877A: test compound 1 μM
T1 sequence (P10275 1-920 T878A): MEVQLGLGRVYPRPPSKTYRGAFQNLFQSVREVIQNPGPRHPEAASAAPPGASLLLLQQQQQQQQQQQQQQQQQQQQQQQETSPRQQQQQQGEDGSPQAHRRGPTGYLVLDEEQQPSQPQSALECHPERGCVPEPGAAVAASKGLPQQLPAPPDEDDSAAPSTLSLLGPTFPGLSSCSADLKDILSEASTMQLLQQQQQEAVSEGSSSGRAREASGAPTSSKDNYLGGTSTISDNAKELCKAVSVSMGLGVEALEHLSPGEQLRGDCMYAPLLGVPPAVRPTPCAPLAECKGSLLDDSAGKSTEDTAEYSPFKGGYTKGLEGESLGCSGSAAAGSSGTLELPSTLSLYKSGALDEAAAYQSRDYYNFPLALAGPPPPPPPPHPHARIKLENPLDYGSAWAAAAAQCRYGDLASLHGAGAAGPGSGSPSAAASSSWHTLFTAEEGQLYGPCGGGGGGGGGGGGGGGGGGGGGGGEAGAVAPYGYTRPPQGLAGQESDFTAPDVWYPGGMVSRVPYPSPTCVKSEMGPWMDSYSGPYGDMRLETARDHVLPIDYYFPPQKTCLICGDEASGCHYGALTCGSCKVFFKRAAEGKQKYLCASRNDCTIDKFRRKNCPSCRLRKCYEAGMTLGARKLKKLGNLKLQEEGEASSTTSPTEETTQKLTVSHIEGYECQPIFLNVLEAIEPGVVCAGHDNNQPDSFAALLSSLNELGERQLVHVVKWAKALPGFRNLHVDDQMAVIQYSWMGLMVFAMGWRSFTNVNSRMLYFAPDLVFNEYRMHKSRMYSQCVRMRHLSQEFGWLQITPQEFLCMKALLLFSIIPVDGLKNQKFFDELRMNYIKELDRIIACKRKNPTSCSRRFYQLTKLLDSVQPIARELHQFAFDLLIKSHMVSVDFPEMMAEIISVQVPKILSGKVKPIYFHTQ
Description: PC-3 cells were transiently transfected with pCMV-MMTV-Luc, Renilla null luciferase and AR expressing plasmids. The cells were treated with 0.1 nM DHT with and without test compound for 24 hr. Relative luciferase activity was determined by dual luciferase assay kit (Promega), standardized to Renilla luciferase control and normalized to 0.1 nM DHT without test compound (100%).
After 16 h, the cells were treated with 0.1 nM of DHT and test compounds at the designated concentration. After further 24 h, the cells were lysed in 100 μL/well passive lysis buffer, and 20 μL of the cell lysates was used for detection of the luciferase activity using Dual Luciferase Assay System (Promega). All experiments were run in triplicate. Relative luciferase activity is determined as the ratio of inducible firefly luciferase luminescence divided by the luminescence of the renilla luciferase control normalized to 0.1 nM DHT without test compounds.
The potency of antagonistic activity: ++>+.

[3] = system: C4-2B cells; experiment: MTT cell growth inhibition, C4-2B; conditions: read-out: Cellular IC50 (μM) C4-2B, Table 9;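 further: cells treated with a dilution series for 72 h, then MTT added and absorbance read at 600 nm, IC50 fitted from dose-response curves by nonlinear regression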
[4] = system: DU145 cells; experiment: IL-6 secretion, Human IL-6 ELISA; format: cell-based; conditions: DU-145 cells, 24 hr
[5] = system: 22Rv1 cells; experiment: MTT cell growth inhibition, 22Rv1; conditions: read-out: Cellular IC50 (μM) 22Rv1; Table 9; MTT
[6] = system: MDA PCa 2b cells; experiment: MTT cell growth inhibition, MDA PCa 2b; conditions: MTT;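 further: MDA PCa 2b prostate cancer cells in BRFF-HPC1 with 20% FBS, exposed to compounds for 72 h, viable-cell MTT formazan read as absorbance at 600 nm, 0.5% DMSO vehicle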
Description: (§2) MDA PCa 2b was seeded at the same density in medium BRFF-HPC1 (Athena Enzyme Systems, Baltimore, Md., USA) supplemented with 20% FBS. After overnight incubation, the medium was changed to a fresh medium containing different concentrations of test compounds diluted from stock DMSO solution. The final concentration of DMSO is 0.5%. After 72 h of incubation with test compounds, 20 μL of 3-(4,5-dimethyl thiazol-2-yl)-2,5-diphenyltetrazolium bromide (MTT) solution (5 mg/mL in PBS) were added to each well and incubated further for 2 h. Next, the supernatant was aspirated and the MTT formazan formed by metabolically viable cells was dissolved in 100 μL of isopropanol. The plates were mixed for 30 min, and the absorbance was measured at 600 nm on a plate reader (FLUOstar OPTIMA, BMG LabTech). All samples were in triplicate. The IC50 values were determined from dose-response curves by nonlinear regression using PRISM v5.00 (GraphPad Software Inc, La Jolla, Calif., USA).
(§3) The in vitro cytotoxicity of 1-20 were evaluated by MTT assays in a panel of prostate cancer cell lines, including LNCaP, MDA PCa 2b, 22Rv1, C4-2B and PC-3.

[7] = system: PC-3 cells
[8] = system: LNCaP cells; conditions: human, 72 h;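 further: MTT formazan absorbance at 600 nm read after 72 h of compound exposure, IC50 fitted by nonlinear regression of dose-response curves, samples run in triplicate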
Description: as §2, §3

[9] = system: MDA PCa 2b cells;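 further: MDA PCa 2b prostate cancer cells in BRFF-HPC1 with 20% FBS, exposed to compounds for 72 h, viable-cell MTT formazan read as absorbance at 600 nm, 0.5% DMSO vehicle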
Description: as §2, §3

[10] = system: 22Rv1 cells
[11] = target: T2, hormone-binding pocket of the AR-LBD (Rattus norvegicus, UniProt P15207); experiment: AR fluorescence polarization (FP) competitor assay; conditions: FIG. 8
T2 construct: purchased Invitrogen P3018
T2 sequence (P15207 651-882 limits assumed): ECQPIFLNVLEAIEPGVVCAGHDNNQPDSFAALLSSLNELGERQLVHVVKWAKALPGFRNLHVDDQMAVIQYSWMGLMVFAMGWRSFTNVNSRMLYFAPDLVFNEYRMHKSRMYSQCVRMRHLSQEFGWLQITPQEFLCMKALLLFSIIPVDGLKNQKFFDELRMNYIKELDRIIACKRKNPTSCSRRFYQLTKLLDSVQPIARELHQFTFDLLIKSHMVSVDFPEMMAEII
Description: The fluorescence polarization was used as a read-out and normalized to that of DMSO vehicle. Results are reported as average±s.d. of experiments performed in triplicates. DHT is included as a positive control.

[12] = system: H-1975 cells; experiment: Growth inhibition, H-1975 lung cancer cells; format: cell-based; conditions: for IC50: Table 10, read-out: Cytotoxicity, IC50 (μM) H-1975
Description: (§1) All samples were in triplicate.

[13] = system: C4-2B cells;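 further: cells treated with a dilution series for 72 h, then MTT added and absorbance read at 600 nm, IC50 fitted from dose-response curves by nonlinear regression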
[14] = system: MDA-MB-231 cells; experiment: Growth inhibition, MDA-MB-231 breast cancer cells; format: cell-based; conditions: for IC50: Table 10, read-out: Cytotoxicity, IC50 (μM) MDA-M B231
Description: as §1

[15] = system: MCF-7 cells; experiment: Growth inhibition, MCF-7 breast cancer cells; format: cell-based; conditions: for IC50: Table 10, read-out: Cytotoxicity, IC50 (μM) MCF-7
Description: as §1

[16] = system: Bic-LNCaP cells; experiment: MTT cellular growth, Bic-LNCaP; format: cell-based; conditions: FIG. 10
[17] = read-out: Cellular IC50 (μM) PC-3, Table 9

SMILES: CC1(C)CCC(O)C=C1/C=C/C(=O)/C=C/c1csc2ccccc12 (centres unmarked) [Compound B92]
IC50 [1, 17]: 3.3 µM
IC50 ([1]; read-out: Cytotoxicity in prostate cancer cell lines IC50 (μM), PC-3, Part D table, 72 hours, I.A. = Inactive): 2 µM
suppression of DHT-induced transactivation of T877A AR [2]: pure antagonists
Antiandrogenic activity evaluated by luciferase assay in PC-3 cells T877A [2]: ++
IC50 [3]: 1.1 µM
secretion of IL-6 [4]: suppress secretion
IC50 [5]: 1.5 µM
IC50 ([6]; read-out: Cytotoxicity in prostate cancer cell lines IC50 (μM), PCa-2b, Part D table, 72 hours): 0.87 µM

IC50 ([7]; human, 72 h): 2.2 µM
IC50 [8]: 0.63 µM
IC50 [1, 17]: 2.3 µM
IC50 ([9]; human, 72 h): 1.3 µM
IC50 ([10]; human, 72 h): 1.1 µM
competitive binding to the hormone-binding pocket of the AR-LBD [11]: competitive binding
IC50 ([13]; human, 72 h): 0.87 µM
suppression of DHT-induced transactivation of T877A AR [2]: effective
Antiandrogenic activity evaluated by luciferase assay in PC-3 cells T877A [2]: ++
IC50 [5]: 1.2 µM
SMILES: CC1(C)CCC(O)C=C1/C=C/C(=O)/C=C/c1cnc2ccccc2c1 (centres unmarked) [Compound B95]
effect in H-1975 lung cancer cell line [12]: effective
IC50 ([12]; Homo sapiens, NCI-H1975): 4.8 µM
effect in MDA-MB-231 breast cancer cell line [14]: effective
IC50 ([14]; Homo sapiens, MDA-MB-231): 3.6 µM
effect in MCF-7 breast cancer cell line [15]: effective
IC50 ([15]; Homo sapiens, MCF7): 5.5 µM
IC50 [3]: 1.4 µM
activity against Bic-LNCaP cells [16]: remains active
IC50 ([6]; read-out: Cellular IC50 (μM) PCa 2b, Table 9): 1.3 µM

IC50 [7]: 3.5 µM
IC50 [9]: 2.6 µM
IC50 [10]: 1.7 µM
IC50 [13]: 1.4 µM
suppression of DHT-induced transactivation of T877A AR [2]: dose-dependent activity
SMILES: CC1=C(/C=C/C(=O)/C=C/c2cccc(C(F)(F)F)c2)C(C)(C)CCC1O (racemic) [Compound B25]
effect in H-1975 lung cancer cell line [12]: effective
IC50 [12]: 6.3 µM
effect in MDA-MB-231 breast cancer cell line [14]: effective
IC50 [14]: 4.4 µM
effect in MCF-7 breast cancer cell line [15]: effective
IC50 [15]: 5.2 µM

Reference: patent US8470889B2 (TRT Pharma Inc., priority 2008, dated 2013)
